What was measured:
[1] = tested on: bedstraw; assay: Test B pre/postemergence bedstraw; format: in vivo, Galium aparine; settings: Preemergence
Outline: (§1)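 Test chemicals in a non-phytotoxic solvent mixture with surfactant were sprayed preemergence onto planted seeds and postemergence onto plants 2 to 18 cm tall (1- to 4-leaf stage). After twelve to sixteen days in a greenhouse, injury was visually rated against untreated controls from 0 (no effect) to 10 (complete control).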

[2] = tested on: blackgrass; assay: Test B pre/postemergence blackgrass; format: in vivo, Alopecurus myosuroides
Outline: as §1

[3] = tested on: surinam grass; assay: Test B pre/postemergence surinam grass; format: in vivo, Brachiaria decumbens
Outline: as §1

[4] = tested on: cocklebur; assay: Test B pre/postemergence cocklebur; format: in vivo, Xanthium strumarium
Outline: as §1

[5] = tested on: corn; assay: Test B pre/postemergence corn; format: in vivo, Zea mays
Outline: as §1

[6] = tested on: crabgrass; assay: Test B pre/postemergence crabgrass; format: in vivo, Digitaria sanguinalis
Outline: as §1

[7] = tested on: giant foxtail; assay: Test B pre/postemergence giant foxtail; format: in vivo, Setaria faberii
Outline: as §1

[8] = tested on: morningglory; assay: Test B pre/postemergence morningglory; format: in vivo, Ipomoea hederacea
Outline: as §1

[9] = tested on: pigweed; assay: Test B pre/postemergence pigweed; format: in vivo, Amaranthus retroflexus
Outline: as §1

[10] = tested on: rape; assay: Test B pre/postemergence rape; format: in vivo, Brassica napus
Outline: as §1

[11] = tested on: soybean; assay: Test B pre/postemergence soybean; format: in vivo, Glycine max
Outline: as §1

[12] = tested on: sugar beet; assay: Test B pre/postemergence sugar beet; format: in vivo, Beta vulgaris
Outline: as §1

[13] = tested on: velvetleaf; assay: Test B pre/postemergence velvetleaf; format: in vivo, Abutilon theophrasti
Outline: as §1

[14] = tested on: wheat; assay: Test B pre/postemergence wheat; format: in vivo, Triticum aestivum
Outline: as §1

[15] = tested on: wild oat; assay: Test B pre/postemergence wild oat; format: in vivo, Avena fatua
Outline: as §1

[16] = tested on: purple nutsedge; assay: Test B pre/postemergence purple nutsedge; format: in vivo, Cyperus rotundus
Outline: as §1

[17] = tested on: rice; assay: Test B flood test rice; format: in vivo, Oryza sativa
Outline: (§2)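 Read-out is a visual response score from 0 (no effect) to 10 (complete control), assigned by comparison with untreated controls. Treatment was applied at the 2-leaf stage, and plants stayed in the greenhouse for twelve to sixteen days before scoring.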

[18] = tested on: smallflower flatsedge; assay: Test B flood test smallflower flatsedge; format: in vivo, Cyperus difformis
Outline: as §2

[19] = tested on: duck salad; assay: Test B flood test duck salad; format: in vivo, Heteranthera limosa
Outline: as §2

[20] = tested on: bamyardgrass; assay: Test B flood test barnyardgrass; format: in vivo, Echinochloa crus-galli
Outline: as §2

[21] = Postemergence, Rate 62 g/ha, scale of 0 to 10, 0 is no effect, 10 is complete control
[22] = Postemergence, Rate 125 g/ha, scale of 0 to 10 where 0 is no effect and 10 is complete control
[23] = Postemergence, Rate 250 g/ha, scale of 0 to 10, 0 is no effect, 10 is complete control
[24] = Postemergence, Rate 500 g/ha, scale of 0 to 10 where 0 is no effect and 10 is complete control
[25] = Preemergence, Rate 62 g/ha, scale 0 to 10 (0 no effect, 10 complete control)
[26] = Preemergence, Rate 125 g/ha, scale of 0 to 10 where 0 is no effect and 10 is complete control
[27] = Preemergence, Rate 500 g/ha, scale of 0 to 10 where 0 is no effect and 10 is complete control
[28] = Rate 62 g/ha, flood test species, Pre-emergence, visual evaluation after twelve to sixteen days
[29] = Rate 125 g/ha, under heading Pre-emergence, flood test species, visual evaluation after twelve to sixteen days
[30] = Rate 250 g/ha, Pre-emergence (flood test species), scale 0 to 10, 0 is no effect, 10 is complete control
[31] = Rate 500 g/ha, Pre-emergence section of Table B, 0 to 10 scale (0 no effect, 10 complete control)

CC(=O)OCC(CCl)n1c(=O)on(C(=O)N(c2ccc(F)cc2)C(C)C)c1=O (centres unmarked) [Compound 596]
Bedstraw plant response rating ([1]; Rate 62 g/ha, scale 0 to 10 (0 no effect, 10 complete control)): 0
Bedstraw plant response rating ([1]; Rate 125 g/ha, scale of 0 to 10 where 0 is no effect and 10 is complete control): 0
Bedstraw plant response rating (0 to 10 scale) ([1]; Rate 250 g/ha): 0
Bedstraw plant response rating ([1]; Rate 500 g/ha, scale of 0 to 10 where 0 is no effect and 10 is complete control): 0
Blackgrass plant response rating [2, 21]: 0
Plant response rating, Blackgrass [2, 22]: 0
Blackgrass plant response rating [2, 23]: 0
Plant response rating, Blackgrass [2, 24]: 0
Blackgrass plant response rating [2, 25]: 0
Blackgrass plant response rating [2, 26]: 0
Blackgrass plant response rating (0 to 10 scale) ([2]; Preemergence, Rate 250 g/ha): 0
Blackgrass plant response rating [2, 27]: 0
B. signalgrass plant response rating [3, 21]: 0
Plant response rating, B. signalgrass [3, 22]: 0
B. signalgrass plant response rating [3, 23]: 0
Plant response rating, B. signalgrass [3, 24]: 0
B. signalgrass plant response rating [3, 25]: 0
B. signalgrass plant response rating [3, 26]: 0
B. signalgrass plant response rating (0 to 10 scale, 0 is no effect, 10 is complete control) ([3]; Preemergence, Rate 250 g/ha): 0
B. signalgrass plant response rating [3, 27]: 0
Cocklebur plant response rating [4, 21]: 0
Plant response rating, Cocklebur [4, 22]: 0
Cocklebur plant response rating [4, 23]: 0
Plant response rating, Cocklebur [4, 24]: 0
Cocklebur plant response rating [4, 25]: 0
Cocklebur plant response rating [4, 26]: 0
Cocklebur plant response rating (0 to 10 scale) ([4]; Preemergence, Rate 250 g/ha): 0
Plant response rating, Cocklebur [4, 27]: 0
Corn plant response rating [5, 21]: 0
Plant response rating, Corn [5, 22]: 0
Corn plant response rating [5, 23]: 0
Plant response rating, Corn [5, 24]: 0
Corn plant response rating [5, 25]: 0
Corn plant response rating [5, 26]: 0
Corn plant response rating (0 to 10 scale) ([5]; Preemergence, Rate 250 g/ha): 0
Plant response rating, Corn [5, 27]: 0
Crabgrass plant response rating [6, 21]: 0
Plant response rating, Crabgrass [6, 22]: 0
Crabgrass plant response rating [6, 23]: 0
Plant response rating, Crabgrass [6, 24]: 2
Crabgrass plant response rating [6, 25]: 0
Crabgrass plant response rating [6, 26]: 0
Plant response rating, Crabgrass [6, 27]: 6
Giant foxtail plant response rating [7, 21]: 0
Plant response rating, Giant foxtail [7, 22]: 0
Giant foxtail plant response rating [7, 23]: 0
Plant response rating, Giant foxtail [7, 24]: 3
Giant foxtail plant response rating [7, 25]: 0
Giant foxtail plant response rating [7, 26]: 0
Plant response rating, Giant foxtail [7, 27]: 4
Morningglory plant response rating [8, 21]: 0
Plant response rating, Morningglory [8, 22]: 0
Morningglory plant response rating [8, 23]: 0
Plant response rating, Morningglory [8, 24]: 2
Morningglory plant response rating [8, 25]: 0
Morningglory plant response rating [8, 26]: 0
Plant response rating, Morningglory [8, 27]: 0
Plant response rating, Redroot pigweed [9, 22]: 0
Redroot pigweed plant response rating [9, 23]: 0
Plant response rating, Redroot pigweed [9, 24]: 0
Redroot pigweed plant response rating [9, 25]: 0
Redroot pigweed plant response rating [9, 26]: 0
Plant response rating, Redroot pigweed [9, 27]: 0
Rape plant response rating [10, 21]: 0
Plant response rating, Rape [10, 22]: 0
Rape plant response rating [10, 23]: 0
Plant response rating, Rape [10, 24]: 0
Rape plant response rating [10, 25]: 0
Rape plant response rating [10, 26]: 0
Plant response rating, Rape [10, 27]: 0
Plant response rating, Soybean [11, 22]: 2
Soybean plant response rating [11, 23]: 2
Plant response rating, Soybean [11, 24]: 3
Soybean plant response rating [11, 25]: 0
Soybean plant response rating [11, 26]: 0
Plant response rating, Soybean [11, 27]: 0
Plant response rating, Sugarbeets [12, 22]: 0
Sugarbeets plant response rating [12, 23]: 0
Plant response rating, Sugarbeets [12, 24]: 0
Sugarbeets plant response rating [12, 25]: 0
Sugarbeets plant response rating [12, 26]: 0
Plant response rating, Sugarbeets [12, 27]: 0
Plant response rating, Velvetleaf [13, 22]: 0
Velvetleaf plant response rating [13, 23]: 0
Plant response rating, Velvetleaf [13, 24]: 0
Velvetleaf plant response rating [13, 25]: 0
Velvetleaf plant response rating [13, 26]: 0
Plant response rating, Velvetleaf [13, 27]: 0
Plant response rating, Wheat [14, 22]: 0
Wheat plant response rating [14, 23]: 0
Plant response rating, Wheat [14, 24]: 0
Wheat plant response rating [14, 25]: 0
Wheat plant response rating [14, 26]: 0
Plant response rating, Wheat [14, 27]: 0
Plant response rating, Wild oats [15, 22]: 0
Wild oats plant response rating [15, 23]: 0
Plant response rating, Wild oats [15, 24]: 0
Wild oats plant response rating [15, 25]: 0
Wild oats plant response rating [15, 26]: 0
Plant response rating, Wild oats [15, 27]: 0
Nutsedge plant response rating [16, 21]: 0
Plant response rating, Nutsedge [16, 22]: 0
Plant response rating, Nutsedge [16, 24]: 0
Nutsedge plant response rating [16, 25]: 0
Nutsedge plant response rating [16, 26]: 0
Plant response rating, Nutsedge [16, 27]: 0
Plant response rating, Rice (0 to 10 scale, 0 is no effect, 10 is complete control) [17, 28]: 0
Rice plant response rating (0 to 10 scale, 0 is no effect, 10 is complete control) [17, 29]: 0
Rice plant response rating [17, 30]: 0
Rice plant response rating [17, 31]: 0
Plant response rating, S. Flatsedge (0 to 10 scale, 0 is no effect, 10 is complete control) [18, 28]: 0
S. Flatsedge plant response rating (0 to 10 scale, 0 is no effect, 10 is complete control) [18, 29]: 0
S. Flatsedge plant response rating [18, 30]: 0
S. Flatsedge plant response rating [18, 31]: 0
Plant response rating, Ducksalad (0 to 10 scale, 0 is no effect, 10 is complete control) [19, 28]: 0
Ducksalad plant response rating (0 to 10 scale, 0 is no effect, 10 is complete control) [19, 29]: 0
Ducksalad plant response rating [19, 30]: 0
Ducksalad plant response rating [19, 31]: 0
Plant response rating, Barnyardgrass (0 to 10 scale, 0 is no effect, 10 is complete control) [20, 28]: 0
Barnyardgrass plant response rating (0 to 10 scale, 0 is no effect, 10 is complete control) [20, 29]: 0
Barnyardgrass plant response rating [20, 30]: 0
Barnyardgrass plant response rating [20, 31]: 0

— US6737383B1, “Herbicidal oxadiazolidines” (priority 1999, dated 2004)
